Source: article PMC6704710, “Preclinical evaluation of 3D185, a novel potent inhibitor of FGFR1/2/3 and CSF-1R, in FGFR-dependent and macrophage-dominant cancer models” (Journal of Experimental & Clinical Cancer Research : CR, 2019)

Key:
[1] = biological target: FGFR2(N549H)(h) (Homo sapiens, UniProt P21802, N549H); experiment: Eurofins kinase panel; type: biochemical
[2] = biological target: T1, AMPKα2(h) (Homo sapiens, UniProt P54646); experiment: Eurofins kinase panel; type: biochemical; details: read-out: Inhibition rate (%)
T1 construct: purchased Eurofins (KinaseProfiler)

[3] = biological target: T2, Aurora-C(h) (Homo sapiens, UniProt Q9UQB9); experiment: Eurofins kinase panel; type: biochemical; details: read-out: Inhibition rate (%)
T2 construct: purchased Eurofins (KinaseProfiler)
T2 sequence (Q9UQB9 1-309): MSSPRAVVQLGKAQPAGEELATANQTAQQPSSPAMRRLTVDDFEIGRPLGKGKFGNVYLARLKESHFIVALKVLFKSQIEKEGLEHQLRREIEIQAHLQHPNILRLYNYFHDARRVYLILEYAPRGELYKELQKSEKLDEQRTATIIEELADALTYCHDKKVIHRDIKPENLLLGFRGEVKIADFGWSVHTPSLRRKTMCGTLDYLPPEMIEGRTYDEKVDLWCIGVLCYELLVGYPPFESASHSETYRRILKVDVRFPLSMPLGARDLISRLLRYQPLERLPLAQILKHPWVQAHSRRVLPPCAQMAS

[4] = biological target: T3, B-Raf(V599E)(h) (Homo sapiens, UniProt P15056, V600E); experiment: Eurofins kinase panel; type: biochemical; details: read-out: Inhibition rate (%)
T3 construct: purchased Eurofins (KinaseProfiler)

[5] = biological target: T4, CaMKI(h) (Homo sapiens, UniProt Q14012); experiment: Eurofins kinase panel; type: biochemical; details: read-out: Inhibition rate (%)
T4 construct: purchased Eurofins (KinaseProfiler)

[6] = biological target: T5, CHK2(R145W)(h) (Homo sapiens, UniProt O96017, R145W); experiment: Eurofins kinase panel; type: biochemical; details: read-out: Inhibition rate (%)
T5 construct: purchased Eurofins (KinaseProfiler)

[7] = biological target: T6, CLK2(h) (Homo sapiens, UniProt P49760); experiment: Eurofins kinase panel; type: biochemical; details: read-out: Inhibition rate (%)
T6 construct: purchased Eurofins (KinaseProfiler)

[8] = biological target: T7, cKit(V654A)(h) (Homo sapiens, UniProt P10721, V654A); experiment: Eurofins kinase panel; type: biochemical; details: read-out: Inhibition rate (%)
T7 construct: purchased Eurofins (KinaseProfiler)

[9] = biological target: T8, HIPK4(h) (Homo sapiens, UniProt Q8NE63); experiment: Eurofins kinase panel; type: biochemical; details: read-out: Inhibition rate (%)
T8 construct: purchased Eurofins (KinaseProfiler)
T8 sequence (Q8NE63 1-616): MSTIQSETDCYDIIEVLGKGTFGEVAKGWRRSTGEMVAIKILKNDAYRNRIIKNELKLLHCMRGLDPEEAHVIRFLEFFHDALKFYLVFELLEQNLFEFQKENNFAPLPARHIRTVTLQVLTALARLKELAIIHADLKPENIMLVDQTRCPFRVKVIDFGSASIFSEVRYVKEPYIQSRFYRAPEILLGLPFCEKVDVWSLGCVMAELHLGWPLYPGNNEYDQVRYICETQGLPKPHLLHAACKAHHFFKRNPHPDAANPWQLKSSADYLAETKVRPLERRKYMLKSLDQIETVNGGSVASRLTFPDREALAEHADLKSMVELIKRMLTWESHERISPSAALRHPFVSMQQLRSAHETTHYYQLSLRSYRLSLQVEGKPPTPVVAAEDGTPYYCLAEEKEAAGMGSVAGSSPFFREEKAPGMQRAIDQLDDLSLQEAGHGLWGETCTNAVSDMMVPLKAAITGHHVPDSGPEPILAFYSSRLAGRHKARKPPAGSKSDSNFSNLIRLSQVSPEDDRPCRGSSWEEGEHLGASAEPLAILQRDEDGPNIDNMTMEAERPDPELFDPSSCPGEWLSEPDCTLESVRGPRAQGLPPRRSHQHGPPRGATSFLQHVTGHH

[10] = biological target: T9, PKCι(h) (Homo sapiens, UniProt P41743); experiment: Eurofins kinase panel; type: biochemical; details: read-out: Inhibition rate (%)
T9 construct: purchased Eurofins (KinaseProfiler)
T9 sequence (P41743 1-596): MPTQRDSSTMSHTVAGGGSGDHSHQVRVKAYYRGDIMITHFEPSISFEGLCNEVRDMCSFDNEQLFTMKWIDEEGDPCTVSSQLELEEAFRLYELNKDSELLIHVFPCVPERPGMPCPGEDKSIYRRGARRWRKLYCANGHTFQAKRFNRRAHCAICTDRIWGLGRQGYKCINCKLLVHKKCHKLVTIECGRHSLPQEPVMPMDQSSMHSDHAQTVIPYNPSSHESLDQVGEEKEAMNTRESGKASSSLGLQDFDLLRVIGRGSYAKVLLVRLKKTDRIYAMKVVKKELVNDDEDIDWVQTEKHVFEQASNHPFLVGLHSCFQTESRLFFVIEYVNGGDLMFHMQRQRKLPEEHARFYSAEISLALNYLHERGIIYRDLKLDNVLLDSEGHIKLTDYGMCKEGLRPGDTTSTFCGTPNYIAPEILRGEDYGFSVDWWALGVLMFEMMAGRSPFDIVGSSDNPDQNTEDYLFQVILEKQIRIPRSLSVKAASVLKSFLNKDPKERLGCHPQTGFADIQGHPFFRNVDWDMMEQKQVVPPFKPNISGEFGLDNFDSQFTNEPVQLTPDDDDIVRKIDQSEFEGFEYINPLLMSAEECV

[11] = biological target: T10, SAPK2a(T106M)(h) (Homo sapiens, UniProt Q16539, T106M); experiment: Eurofins kinase panel; type: biochemical; details: read-out: Inhibition rate (%)
T10 construct: purchased Eurofins (KinaseProfiler)

[12] = biological target: T11, VEGFR2 (KDR) (Homo sapiens, UniProt P35968); experiment: Kinase inhibition assay (ELISA); type: biochemical
T11 construct: purchased Eurofins (Fremont, United States)

[13] = test system: NCI-H1581 subcutaneous xenograft; type: in vivo; details: 50 mg/kg oral once daily 14 days
Protocol: […]. When the tumor volume reached 100–150 mm^3, the mice were randomly assigned to the vehicle control group (n = 12) or a treatment group (n = 6 per group). […].
The tumors were measured twice per week using a microcaliper. Tumor volume (TV) was calculated as follows: TV = (length × width^2)/2. In addition, the individual relative tumor volume (RTV) was calculated as follows: RTV = Vt / V0, where Vt is the volume on a particular day and V0 is the volume at the beginning of the treatment. The RTV is shown on the indicated days as the […] ± SEM for the indicated groups of mice. […]

T7 sequence (P10721 26-976 V654A): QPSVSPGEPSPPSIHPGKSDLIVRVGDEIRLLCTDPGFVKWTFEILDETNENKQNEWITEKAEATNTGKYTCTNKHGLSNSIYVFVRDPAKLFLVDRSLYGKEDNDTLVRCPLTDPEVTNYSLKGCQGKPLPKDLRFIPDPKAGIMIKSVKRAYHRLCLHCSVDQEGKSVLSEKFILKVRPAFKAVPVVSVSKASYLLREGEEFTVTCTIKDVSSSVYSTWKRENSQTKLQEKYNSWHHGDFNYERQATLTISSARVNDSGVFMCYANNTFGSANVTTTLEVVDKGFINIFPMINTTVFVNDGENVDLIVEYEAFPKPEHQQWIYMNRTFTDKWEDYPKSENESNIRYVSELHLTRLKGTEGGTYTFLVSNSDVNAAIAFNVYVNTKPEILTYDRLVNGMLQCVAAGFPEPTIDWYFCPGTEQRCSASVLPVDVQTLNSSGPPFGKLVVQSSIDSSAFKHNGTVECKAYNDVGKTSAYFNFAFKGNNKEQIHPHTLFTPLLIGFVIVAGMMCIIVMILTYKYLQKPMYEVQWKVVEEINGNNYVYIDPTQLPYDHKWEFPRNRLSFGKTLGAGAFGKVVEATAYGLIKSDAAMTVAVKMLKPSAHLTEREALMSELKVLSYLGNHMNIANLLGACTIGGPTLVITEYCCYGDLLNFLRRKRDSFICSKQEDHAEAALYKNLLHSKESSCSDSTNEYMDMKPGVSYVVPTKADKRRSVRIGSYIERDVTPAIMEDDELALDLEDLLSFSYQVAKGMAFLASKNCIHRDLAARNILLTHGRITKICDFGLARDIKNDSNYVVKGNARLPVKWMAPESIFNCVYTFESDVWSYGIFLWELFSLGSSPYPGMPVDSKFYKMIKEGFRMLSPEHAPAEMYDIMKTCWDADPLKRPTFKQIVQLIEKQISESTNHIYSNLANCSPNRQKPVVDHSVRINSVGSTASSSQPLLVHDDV
Sequence of FGFR2(N549H)(h) (P21802 22-821 N549H): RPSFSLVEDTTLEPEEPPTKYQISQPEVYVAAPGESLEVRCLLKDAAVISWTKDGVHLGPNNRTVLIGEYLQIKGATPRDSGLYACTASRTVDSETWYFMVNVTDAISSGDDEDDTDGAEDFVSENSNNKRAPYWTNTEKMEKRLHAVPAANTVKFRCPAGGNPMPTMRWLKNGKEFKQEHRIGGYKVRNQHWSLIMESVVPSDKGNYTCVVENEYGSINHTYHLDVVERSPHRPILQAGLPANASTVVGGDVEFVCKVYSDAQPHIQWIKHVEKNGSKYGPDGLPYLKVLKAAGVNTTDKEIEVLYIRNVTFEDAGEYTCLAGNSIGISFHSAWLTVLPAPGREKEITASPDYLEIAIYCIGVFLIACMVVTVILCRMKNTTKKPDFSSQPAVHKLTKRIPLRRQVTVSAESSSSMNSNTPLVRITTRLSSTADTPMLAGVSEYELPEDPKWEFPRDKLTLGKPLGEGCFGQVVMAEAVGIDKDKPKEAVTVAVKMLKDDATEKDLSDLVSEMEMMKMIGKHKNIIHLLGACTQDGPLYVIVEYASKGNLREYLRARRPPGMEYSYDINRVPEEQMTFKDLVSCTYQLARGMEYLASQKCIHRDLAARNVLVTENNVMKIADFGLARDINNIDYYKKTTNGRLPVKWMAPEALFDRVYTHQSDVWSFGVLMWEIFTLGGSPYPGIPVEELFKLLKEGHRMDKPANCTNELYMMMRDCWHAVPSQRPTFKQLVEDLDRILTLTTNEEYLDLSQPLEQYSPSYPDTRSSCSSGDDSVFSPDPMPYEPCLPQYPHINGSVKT
T10 sequence (Q16539 whole entry T106M): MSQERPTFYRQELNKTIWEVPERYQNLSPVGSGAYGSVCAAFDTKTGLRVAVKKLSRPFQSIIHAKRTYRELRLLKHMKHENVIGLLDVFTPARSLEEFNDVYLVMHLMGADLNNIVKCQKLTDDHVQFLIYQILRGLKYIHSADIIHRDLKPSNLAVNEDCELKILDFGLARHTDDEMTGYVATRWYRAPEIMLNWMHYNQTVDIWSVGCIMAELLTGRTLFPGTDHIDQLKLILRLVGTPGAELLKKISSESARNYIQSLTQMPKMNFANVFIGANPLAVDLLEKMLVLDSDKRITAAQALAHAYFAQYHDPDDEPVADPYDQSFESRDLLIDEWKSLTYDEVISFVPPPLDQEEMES
T6 sequence (P49760 whole entry): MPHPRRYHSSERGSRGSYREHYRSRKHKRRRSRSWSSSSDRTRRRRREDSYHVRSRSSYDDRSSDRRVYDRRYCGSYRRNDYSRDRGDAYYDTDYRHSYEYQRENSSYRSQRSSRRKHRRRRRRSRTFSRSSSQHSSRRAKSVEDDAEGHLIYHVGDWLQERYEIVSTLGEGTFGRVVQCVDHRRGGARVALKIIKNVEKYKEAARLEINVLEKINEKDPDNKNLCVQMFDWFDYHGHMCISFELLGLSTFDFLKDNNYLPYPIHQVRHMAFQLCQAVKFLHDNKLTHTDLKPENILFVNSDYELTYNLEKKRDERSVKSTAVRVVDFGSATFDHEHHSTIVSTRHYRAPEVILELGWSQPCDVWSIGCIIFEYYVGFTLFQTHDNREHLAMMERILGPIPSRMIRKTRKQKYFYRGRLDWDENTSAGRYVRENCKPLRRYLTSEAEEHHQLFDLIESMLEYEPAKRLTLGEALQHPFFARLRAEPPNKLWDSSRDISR
T5 sequence (O96017 whole entry R145W): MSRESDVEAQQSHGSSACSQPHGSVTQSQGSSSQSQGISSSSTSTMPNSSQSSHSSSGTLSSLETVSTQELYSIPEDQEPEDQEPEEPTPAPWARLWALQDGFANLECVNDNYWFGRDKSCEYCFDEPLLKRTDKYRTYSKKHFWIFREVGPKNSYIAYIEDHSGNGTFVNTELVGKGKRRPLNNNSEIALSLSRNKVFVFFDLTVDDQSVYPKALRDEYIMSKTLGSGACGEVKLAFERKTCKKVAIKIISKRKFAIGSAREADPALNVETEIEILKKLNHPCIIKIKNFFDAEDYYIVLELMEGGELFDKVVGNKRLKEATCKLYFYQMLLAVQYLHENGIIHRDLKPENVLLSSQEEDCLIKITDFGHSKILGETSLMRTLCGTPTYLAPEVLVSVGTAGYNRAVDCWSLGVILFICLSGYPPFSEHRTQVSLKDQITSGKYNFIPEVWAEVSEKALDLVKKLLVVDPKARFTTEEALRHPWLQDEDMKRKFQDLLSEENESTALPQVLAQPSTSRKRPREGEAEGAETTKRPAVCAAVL
T1 sequence (P54646 whole entry): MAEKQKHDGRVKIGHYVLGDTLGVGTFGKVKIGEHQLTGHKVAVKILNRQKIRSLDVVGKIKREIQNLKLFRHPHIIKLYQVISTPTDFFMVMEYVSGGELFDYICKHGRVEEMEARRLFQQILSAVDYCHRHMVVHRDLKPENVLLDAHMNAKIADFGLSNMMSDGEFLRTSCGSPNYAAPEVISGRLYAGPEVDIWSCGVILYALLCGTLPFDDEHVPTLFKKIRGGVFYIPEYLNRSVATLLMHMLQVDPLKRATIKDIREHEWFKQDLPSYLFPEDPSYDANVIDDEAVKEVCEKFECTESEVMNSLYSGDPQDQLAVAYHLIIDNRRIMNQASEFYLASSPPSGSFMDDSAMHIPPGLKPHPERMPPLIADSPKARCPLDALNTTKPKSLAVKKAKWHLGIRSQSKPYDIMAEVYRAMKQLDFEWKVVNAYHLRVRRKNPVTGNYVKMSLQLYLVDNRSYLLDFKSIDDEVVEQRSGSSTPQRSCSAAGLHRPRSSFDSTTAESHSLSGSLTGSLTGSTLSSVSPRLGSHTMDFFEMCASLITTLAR
T1 sequence (Q9Y478 whole entry partner): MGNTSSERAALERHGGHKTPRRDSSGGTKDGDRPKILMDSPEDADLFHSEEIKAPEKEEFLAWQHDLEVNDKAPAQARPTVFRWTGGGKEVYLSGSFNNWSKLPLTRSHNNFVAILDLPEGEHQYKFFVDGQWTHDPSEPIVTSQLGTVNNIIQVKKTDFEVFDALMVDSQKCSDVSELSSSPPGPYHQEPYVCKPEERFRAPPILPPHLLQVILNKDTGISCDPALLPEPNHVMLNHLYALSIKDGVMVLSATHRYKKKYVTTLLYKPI
T1 sequence (P54619 whole entry partner): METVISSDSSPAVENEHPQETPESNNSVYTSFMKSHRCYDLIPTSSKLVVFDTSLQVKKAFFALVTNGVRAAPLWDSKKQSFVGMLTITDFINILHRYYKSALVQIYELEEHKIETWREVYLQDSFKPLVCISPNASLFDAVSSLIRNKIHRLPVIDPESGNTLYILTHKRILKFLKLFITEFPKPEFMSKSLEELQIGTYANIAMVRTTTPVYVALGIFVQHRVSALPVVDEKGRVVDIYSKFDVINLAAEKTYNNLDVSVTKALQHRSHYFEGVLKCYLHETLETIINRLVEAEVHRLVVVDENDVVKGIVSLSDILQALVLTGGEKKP
T4 sequence (Q14012 whole entry): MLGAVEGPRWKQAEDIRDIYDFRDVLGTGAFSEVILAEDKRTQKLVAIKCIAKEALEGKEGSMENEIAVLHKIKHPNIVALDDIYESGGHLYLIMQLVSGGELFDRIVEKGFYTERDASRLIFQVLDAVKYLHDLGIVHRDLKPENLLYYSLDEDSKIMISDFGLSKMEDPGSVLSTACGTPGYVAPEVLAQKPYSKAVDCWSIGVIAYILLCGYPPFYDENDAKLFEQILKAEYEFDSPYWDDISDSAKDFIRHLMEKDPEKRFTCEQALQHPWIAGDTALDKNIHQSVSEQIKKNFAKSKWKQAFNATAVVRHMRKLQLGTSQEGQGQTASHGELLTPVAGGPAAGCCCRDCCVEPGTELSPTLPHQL

For `COc1cc(OC)c(Cl)c(-c2ccc3c(NC(=O)c4ccc(N5CCNC(C)(C)C5)cc4)n[nH]c3n2)c1Cl` [3D185], the IC50 ([1]; estimated from 372-kinase panel) was less than 10 nM, the inhibition at 0.01 µM ([1]; read-out: Inhibition rate (%)) was 96% and the inhibition at 0.1 µM ([1]; read-out: Inhibition rate (%)) was 98%. For the same compound, the inhibition at 1 µM ([1]; read-out: Inhibition rate (%)) was 100%, the inhibition at 0.01 µM ([2]; 10 nM) was -4% and the inhibition at 0.1 µM ([2]; 100 nM) was -8%. For the same compound, the inhibition at 1 µM ([2]; 1000 nM) was 9%, the inhibition at 0.01 µM ([3]; 10 nM) was -15% and the inhibition at 0.1 µM ([3]; 100 nM) was 6%. It also gave an inhibition at 1 µM ([3]; 1000 nM) of -2%, an inhibition at 0.01 µM ([4]; 10 nM) of -1% and an inhibition at 0.1 µM ([4]; 100 nM) of -6%. The inhibition at 1 µM ([4]; 1000 nM) was 7%, the inhibition at 0.01 µM ([5]; 10 nM) was 11% and the inhibition at 0.1 µM ([5]; 100 nM) was 14%. The inhibition at 1 µM ([5]; 1000 nM) was 64%, the inhibition at 0.01 µM ([6]; 10 nM) was -17% and the inhibition at 0.1 µM ([6]; 100 nM) was -15%. It also gave an inhibition at 1 µM ([6]; 1000 nM) of -4%, an inhibition at 0.01 µM ([7]; 10 nM) of 5% and an inhibition at 0.1 µM ([7]; 100 nM) of 3%. It also gave an inhibition at 1 µM ([7]; 1000 nM) of 7%, an inhibition at 0.01 µM ([8]; 10 nM) of 4% and an inhibition at 0.1 µM ([8]; 100 nM) of 14%. For the same compound, the inhibition at 1 µM ([8]; 1000 nM) was 37%, the inhibition at 0.01 µM ([9]; 10 nM) was 1% and the inhibition at 0.1 µM ([9]; 100 nM) was -17%. It also gave an inhibition at 1 µM ([9]; 1000 nM) of 16%, an inhibition at 0.01 µM ([10]; 10 nM) of -1% and an inhibition at 0.1 µM ([10]; 100 nM) of 0%. For the same compound, the inhibition at 1 µM ([10]; 1000 nM) was -1%, the inhibition at 0.01 µM ([11]; 10 nM) was 0% and the inhibition at 0.1 µM ([11]; 100 nM) was 3%. The inhibition at 1 µM ([11]; 1000 nM) was -3%, the IC50 ([12]; mean ± SD) was 382 nM and the “selectivity for FGFR1 over KDR” value ([12]; molecular kinase assays) was “over 760 fold”. For the same compound, the “tumor growth inhibition rate” value [13] was 96.4%.
